The text below walks through data of US20230116703A1, “NOVEL ERGOLINES AND METHODS OF TREATING MOOD DISORDERS” (priority 2021, published 2023).

Series [1] concerns the target T1, 5-HT2A receptor (Homo sapiens, UniProt P28223).
T1 construct: host or cells: HEK293
Description: cell-based. The class given is cell-based. Conditions: Ca^2+ flux, agonist; read-out: 5-HT2A EC50.

The nature of series [2]: Metabolic stability in rat liver microsomes (RLM). The following applies: for t1/2: RLM, 0.50 mg protein per mL; for microsomal CLint at 1 μM: both, rat, pooled rat liver microsomes, pH 7.4.
In series [3] the target is T2, human 5-HT2C receptor (Homo sapiens, UniProt P28335).
T2 sequence (P28335 33-458): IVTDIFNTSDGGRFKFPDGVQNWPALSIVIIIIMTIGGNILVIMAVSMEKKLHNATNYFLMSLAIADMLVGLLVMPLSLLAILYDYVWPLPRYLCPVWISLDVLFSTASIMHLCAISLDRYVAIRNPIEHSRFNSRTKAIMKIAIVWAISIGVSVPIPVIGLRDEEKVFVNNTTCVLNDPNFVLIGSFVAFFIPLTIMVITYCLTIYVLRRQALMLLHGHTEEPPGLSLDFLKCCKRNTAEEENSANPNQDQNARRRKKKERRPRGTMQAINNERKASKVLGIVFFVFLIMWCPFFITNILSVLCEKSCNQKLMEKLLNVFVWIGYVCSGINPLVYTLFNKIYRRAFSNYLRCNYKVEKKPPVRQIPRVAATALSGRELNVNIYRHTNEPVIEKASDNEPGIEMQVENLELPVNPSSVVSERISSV
Description: cell-based. The following applies: Ca^2+ flux, agonist.

Series [4] concerns the target T3, 5-HT2B receptor (Homo sapiens, UniProt P41595).
T3 construct: host or cells: HEK293
Description: cell-based. The following applies: Ca^2+ flux, agonist; read-out: 5-HT2B EC50.

Series [5] addresses T4, 5-HT1A receptor (Homo sapiens, UniProt P08908).
T4 construct: host or cells: CHO cells
T4 sequence (P08908 1-422): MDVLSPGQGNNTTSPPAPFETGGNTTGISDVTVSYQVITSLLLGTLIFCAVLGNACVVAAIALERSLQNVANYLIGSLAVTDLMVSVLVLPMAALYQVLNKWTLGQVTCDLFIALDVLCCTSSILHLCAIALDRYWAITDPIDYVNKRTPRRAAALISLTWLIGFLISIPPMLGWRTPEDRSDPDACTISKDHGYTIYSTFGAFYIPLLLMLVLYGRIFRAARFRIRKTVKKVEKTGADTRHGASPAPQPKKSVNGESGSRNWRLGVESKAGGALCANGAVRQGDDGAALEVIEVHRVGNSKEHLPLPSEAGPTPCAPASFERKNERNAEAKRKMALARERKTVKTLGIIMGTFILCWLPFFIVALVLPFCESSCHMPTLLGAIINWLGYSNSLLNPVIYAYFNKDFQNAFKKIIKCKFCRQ
Description: cell-based.

The target of series [6] is T1, 5-HT2A receptor. Nature of the series: PathHunter beta-arrestin recruitment assay at 5-HT2A. The class given is cell-based. On the procedure:
The degree of arrestin bias varied substantially across the other compounds tested as well.
Arrestin Functional Assay at 5-HT2A. Recruitment of beta-arrestin was determined using a PathHunter assay at Eurofins DiscoverX (Fremont, Calif.) according to their standard protocols. PathHunter GPCR beta-arrestin assays take advantage of DiscoverX's proprietary Enzyme Fragment Complementation technology. The GPCR is fused in frame with a small enzyme donor fragment ProLink™ (PK) and co-expressed in cells stably expressing a fusion protein of beta-arrestin and the larger, N-terminal deletion mutant of beta-galactosidase. Activation of the GPCR (5-HT2A receptor in this case) stimulates binding of beta-arrestin to the PK-tagged GPCR and forces complementation of the two enzyme fragments, resulting in the formation of an active beta-galactosidase enzyme. This interaction leads to an increase in enzyme activity that can be measured using chemiluminescent PathHunter Detection Reagents. Briefly, PathHunter cells expressing 5-HT2A receptors were seeded in a volume of 20 μL into 384-well plates and incubated at 37° C. for the appropriate time prior to testing. […] Plates were then imaged on a microplate reader and the agonist activity was calculated using the following formula: % Activity=100%×(mean RLU of test sample−mean RLU of vehicle control)/(mean MAX control ligand−mean RLU of vehicle control), where RLU=relative light units.

The nature of series [7]: Metabolic stability in human liver microsomes (HLM). The class given is in vitro ADME. The following applies: for t1/2: 1 μM, 0.50 mg protein per mL; for microsomal CLint at 1 μM: both sexes, human, pooled human liver microsomes, pH 7.4, 0.50 mg protein per mL. The source says: HLM Stability. Pooled HLM from adult male and female donors (Corning 452117) were used.
For series [8], the target named is T1, 5-HT2A receptor. Description: biochemical. The class given is binding. Conditions: 1 nM [^3H]ketanserin, HEK293 stable cell line; read-out: 5-HT2A Receptor Ki (nM) ([^3H]ketanserin). In outline:
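Binding affinity comes from a [^3H]ketanserin radioligand assay run under literature-adapted conditions.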

The nature of series [9]: Metabolic stability in mouse liver microsomes (MLM). The class given is in vitro ADME. The following applies: 0.50 mg protein per mL; for t1/2: MLM (CD-1), 1 μM; for microsomal CLint at 1 μM: mouse, pooled mouse liver microsomes, pH 7.4, MLM (CD-1). The source says:
MLM Stability Pooled MLM from CD-1 mice (BIOIVT M00501) were used.

Series [10] concerns C57BL/6 mice. Description: Head twitch response (HTR) in mice. The following applies: mouse HTR, SC. The class given is in vivo, mouse. As for the experimental part:
Agonists of the 5-HT2A receptor are well known to induce this effect in rodents and the potency of this HTR is correlated with hallucinogenic potency in humans.
Animals. Adult male C57BL/6 mice, aged 6-8 weeks (body weight 20-25 g) were used in this experiment. Animals were housed under controlled temperatures and 12-hour light/dark cycles (lights on between 07:00-19:00 h), with ad libitum food and water. This study was carried out in strict accordance with the requirements of the Committee for the Purpose of Control and Supervision of Experiments on Animals (CPCSEA), India. All efforts were made to minimize suffering.
Drugs and Drug Administration. Compound 1 was synthesized as described above. It was administered subcutaneously (SC) dissolved in saline vehicle at a volume of 10 mL/kg. Five doses were tested, with n=6 animals/group. Doses were calculated on the basis of the freebase.
Procedure. Mice were administered one dose of the drug and immediately placed into a small open field for behavioral observation. Animals were observed continuously for 20 mins and the number of head twitches (HTs) were counted by an observer blind to the treatment condition.
Statistical Analysis. The data points shown are the mean±standard error of the mean (SEM). Analysis was performed using GraphPad Prism 6. Curves were fit using a non-linear gaussian distribution to calculate ED50 and Emax values.
Additional disclosed compounds were tested in the mouse head twitch response (HTR) assay according to the procedure described in Example 43. […] Lastly, compounds with much larger benzyl and phenethyl substituents on the amine nitrogen (e.g., 10 and 11) were low efficacy in this assay, consistent with their lower maximal efficacy in the arrestin functional assay (see Example 41).

The mark [11] stands for this setting: Ca^2+ flux, agonist, read-out: 5-HT1A EC50.

pEC50: −log10 of the molar value. Like-named read-outs stand apart in the source and are kept apart here.

T3 sequence (P41595 whole entry): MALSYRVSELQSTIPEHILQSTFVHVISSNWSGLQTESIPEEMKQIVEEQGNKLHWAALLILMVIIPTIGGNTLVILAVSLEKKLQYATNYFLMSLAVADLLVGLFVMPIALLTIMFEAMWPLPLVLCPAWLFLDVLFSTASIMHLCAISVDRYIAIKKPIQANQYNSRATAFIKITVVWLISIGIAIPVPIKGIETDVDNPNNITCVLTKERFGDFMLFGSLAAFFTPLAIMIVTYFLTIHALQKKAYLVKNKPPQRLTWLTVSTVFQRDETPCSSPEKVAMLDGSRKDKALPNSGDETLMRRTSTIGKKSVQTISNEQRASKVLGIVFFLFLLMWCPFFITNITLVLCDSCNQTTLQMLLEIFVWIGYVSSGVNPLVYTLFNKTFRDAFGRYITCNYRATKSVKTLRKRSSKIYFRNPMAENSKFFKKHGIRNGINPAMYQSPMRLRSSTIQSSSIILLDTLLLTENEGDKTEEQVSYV
T1 sequence (P28223 whole entry): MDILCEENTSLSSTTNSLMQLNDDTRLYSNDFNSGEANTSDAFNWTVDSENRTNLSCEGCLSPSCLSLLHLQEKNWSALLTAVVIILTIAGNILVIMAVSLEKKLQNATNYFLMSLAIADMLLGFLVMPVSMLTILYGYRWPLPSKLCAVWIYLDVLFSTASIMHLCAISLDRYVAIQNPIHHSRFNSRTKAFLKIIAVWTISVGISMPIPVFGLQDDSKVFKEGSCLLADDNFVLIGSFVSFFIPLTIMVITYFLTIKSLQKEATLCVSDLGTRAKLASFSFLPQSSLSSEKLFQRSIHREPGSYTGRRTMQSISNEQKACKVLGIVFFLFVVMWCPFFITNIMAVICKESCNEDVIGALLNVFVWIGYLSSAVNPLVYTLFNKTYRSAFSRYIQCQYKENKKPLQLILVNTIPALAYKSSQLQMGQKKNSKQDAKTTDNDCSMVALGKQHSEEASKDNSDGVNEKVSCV

With `CCC[C@@H](C)NC(=O)[C@H]1C=C2c3cccc4[nH]cc(c34)C[C@H]2N(C)C1` [Int17a, (6aR,9S)-7-methyl-N—((R)-pentan-2-yl)-4,6,6a,7,8,9-hexahydroindolo[4,3-fg]quinoline-9-carboxamide], the negative logarithm of the EC50 (pEC50) in series [1] is 6.37; in series [3], 6.02; in [4], < 5.00; in series [5] (setting [11]) it was 6.58; in [6] it was 7.12. Moreover, the “t1/2” value in series [2] is reported as 1.961 min; in [7], 4.578 min; in [9], 1.576 min. The intrinsic metabolic clearance (microsomal CLint) at 1 μM in series [2] is 707 µL/min/mg; in [7], 303 µL/min/mg; in series [9], 880 µL/min/mg. Also, the Ki in [8] is 41.3 nM.

On to `CC[C@@H](C)NC(=O)[C@H]1C=C2c3cccc4[nH]cc(c34)C[C@H]2N(C)C1` [Int8a, (6aR,9S)—N—((R)-sec-butyl)-7-methyl-4,6,6a,7,8,9-hexahydroindolo[4,3-fg]quinoline-9-carboxamide], for which the pEC50 in [1] was 6.75; in series [3] it was 6.80; in series [4], < 5.00; in [5] (setting [11]) it was 6.79; in [6], 7.71. Moreover, the “t1/2” value in series [2] stood at 3.5 min; in [7], 11.1 min; in [9], 1.6 min. Also, the microsomal CLint at 1 μM amounted to 394 µL/min/mg in series [2], 125 µL/min/mg in series [7] and 843 µL/min/mg in [9]. For the same molecule, the inhibition constant Ki in [8] was 84.3 nM.

`C=CCN1C[C@@H](C(=O)N[C@H](C)CC)C=C2c3cccc4[nH]cc(c34)C[C@H]21` [Compound 8a, (6aR,9S)-7-allyl-N—((R)-sec-butyl)-4,6,6a,7,8,9-hexahydroindolo[4,3-fg]quinoline-9-carboxamide]: the pEC50 in series [1] was 6.40; in series [3], < 5.00; in series [4], 5.45; in series [5] (setting [11]), 5.81; in series [6] it was 5.93. For the same molecule, the results for the “t1/2” value in series [2], in [7] and in [9] were 1.7 min, 3.4 min and 0.8 min, respectively. Moreover, the values for the microsomal CLint at 1 μM in series [2], in [7] and in [9] were 835 µL/min/mg, 409 µL/min/mg and 1660 µL/min/mg, respectively. Moreover, the Ki in series [8] was > 1230 nM.

Regarding `CCCN1C[C@@H](C(=O)N[C@H](C)CC)C=C2c3cccc4[nH]cc(c34)C[C@H]21` [Compound 3a, (6aR,9S)—N—((R)-sec-butyl)-7-propyl-4,6,6a,7,8,9-hexahydroindolo[4,3-fg]quinoline-9-carboxamide], the negative logarithm of the EC50 (pEC50) in series [1] is 6.84; in series [3], 6.88; in series [4], 5.74; in series [5] (setting [11]), 6.81; in series [6] it was 7.27. The figures for the “t1/2” value in series [2], in series [7] and in series [9] were 1.4 min, 2.2 min and 0.6 min, respectively. Further, the intrinsic clearance (microsomal CLint) at 1 μM in [2] was determined as 960 µL/min/mg; in series [7], 63.4 µL/min/mg; in series [9] it was 2490 µL/min/mg. The Ki in series [8] is 27.6 nM.

`C[C@H]1C[C@H](C)N1C(=O)[C@@H]1C=C2c3cccc4[nH]cc(c34)C[C@H]2N(C)C1` [Int11, ((2S,4S)-2,4-dimethylazetidin-1-yl)((6aR, 9R)-7-methyl-4,6,6a,7,8,9-hexahydroindolo[4,3-fg]quinolin-9-yl)methanone]: the pEC50 was 7.43 in [1], 7.02 in [4], 8.05 in [5] and 8.80 in [6]. The “t1/2” value in [2] came to 54.9 min; in [7] it was 25.7 min; in series [9], 13.9 min. The values for the intrinsic clearance (microsomal CLint) at 1 μM in series [2], in series [7] and in [9] were 25.3 µL/min/mg, 53.9 µL/min/mg and 100 µL/min/mg, respectively. Further, in series [6] (5-HT2A beta-arrestin), the Emax is < 60%. Moreover, the “agonist type in arrestin recruitment assay (in words)” value in [6] (5-HT2A beta-arrestin) is “partial agonists”. Also, the ED50 in [10] (20 min, 20 min observation, curve fit, poor in some cases, read-out: ED50 (95% CI)) turned out to be 0.0154 mg/kg. Moreover, the “Most Efficacious Dose” value in series [10] turned out to be 0.1 mg/kg. For the same molecule, the “Emax (95% CI)” value in [10] (20 min observation, curve fit, poor in some cases) is listed as 10.93 (9.181-12.76). The Ki in series [8] is 2.22 nM.

On to `CC[C@@H](C)NC(=O)[C@H]1C=C2c3cccc4[nH]cc(c34)C[C@H]2N(CC)C1` [Compound 5a, (6aR,9S)—N—((R)-sec-butyl)-7-ethyl-4,6,6a,7,8,9-hexahydroindolo[4,3-fg]quinoline-9-carboxamide], for which the negative-log EC50 (pEC50) was 6.93 in [1]; 6.09 in [3]; 5.60 in series [4]; 6.88 in [5] (setting [11]); 7.18 in series [6]. Further, the “t1/2” value in series [2] amounted to 3.1 min; in series [7] it was 5.5 min; in series [9], 1.7 min. For the same molecule, the intrinsic clearance (microsomal CLint) at 1 μM was determined as 453 µL/min/mg in series [2], 251 µL/min/mg in [7] and 834 µL/min/mg in series [9]. Moreover, the inhibition constant Ki in series [8] came to 74.5 nM.

As for `CCC(CC)NC(=O)[C@H]1C=C2c3cccc4[nH]cc(c34)C[C@H]2N(C)C1` [Int14a, (6aR,9S)-7-methyl-N-(pentan-3-yl)-4,6,6a,7,8,9-hexahydroindolo[4,3-fg]quinoline-9-carboxamide], the pEC50 was 6.33 in [1]; 6.29 in [3]; < 5.00 in series [4]; 5.81 in series [5]; 7.45 in series [6]. Also, the “t1/2” value was found to be 1.8 min in series [2], 3.35 min in series [7] and 1.699 min in [9]. Further, the figures for the intrinsic clearance (microsomal CLint) at 1 μM in [2], in series [7] and in series [9] were 770 µL/min/mg, 414 µL/min/mg and 816 µL/min/mg, respectively. Besides, the Ki in series [8] was found to be 56.2 nM.
